Reference: patent publication US4766116A, “Diaryl butyric acid derivative and pharmaceutical use thereof” (Suntory Limited, priority 1984, dated 1988)
Where a name gives a salt, the structure may show the parent alone.

Columns and labels:
[1] = tested on: lipid peroxides in the blood serum; experiment: Antilipid Peroxidation Activity (B), lipid peroxides in blood serum of alloxan-injected mice; format: in vivo, Male ddY mice; conditions: ip, 24 hours after alloxan 85 mg/kg
Experimental: (B) Male ddY mice having a body weight of 24 to 27 g were used (i.e., 5 to 9 mice in one group). After 16 to 17 hours nestia, 85 mg/kg of alloxan was rapidly injected into the tail vein of the mice. After injecting the alloxan, the mice were subjected to free feeding and free water intaking and, 24 hours later, the sample compound was intraperitoneally injected into the mice. After an additional 24 hours, anesthesia was applied to the mice with ether and the blood of alvine aorta and cava was sampled. The amounts of the lipid peroxides in the blood serum were quantitatively measured according to a Yagi's method (i.e., K. Yagi, Biochem. Med., 15, 212, 1976).
The results were compared with that of a control group to which only a physiological saline was injected.

Male ddY mice [2] = experiment: Normobaric Hypoxia Activity (survival time in 96% N2 and 4% O2); format: in vivo; conditions: ip, 30 minutes before
Experimental: Male ddY mice having a body weight of 22 to 30 g were used (i.e., 7 to 10 mice in one group). The sample compound prepared in the Synthesis Example 1 or 7 was intraperitoneally injected into the mice and, 30 minutes later, the mice were placed in a desiccator having a volume of about 1 liter and filled with a gas mixture of 96% N2 and 4% O2. The survival time up to the termination of breathing by the mice was determined. During the test, the N2 --O2 gas mixture was continuously supplied at a rate of 3 l/min. When the survival time was more than 15 minutes, the survival time was assumed to be 15 minutes. The results were compared with a control group, to which only a physiological saline was injected.

Male ddY mice [3] = experiment: Scopolamine Amnesia Activity (step-through passive avoidance learning); format: in vivo; conditions: Mus musculus; ip immediately after first session; scopolamine 0.5 mg/kg hypodermically; retention test 24 hours later; read-out: Scopolamine Amnesia EDmin (Minimum effective dose)
Text: Ten male ddY mice having a body weight of 22 to 30 g were used as one group. A slit was located between a light room and a dark room. In the dark room, an arrangement was made whereby an electric shock was given to the feet by an electric current. Thus, the behavior of the mice in relation to step-through to the dark room was studied. The mice were amnesically treated with an administration of scopolamine with or without the injection of the sample compound 1 or 7 and the time taken to avoid step-through by the mice to the dark room was determined by the so-called step-through passive avoidance learning method. The electric current used was 0.6 mA. The scopolamine was hypodermically injected in an amount of 0.5 mg/kg at 20 minutes prior to the first session and the sample compound was intraperitoneally injected immediately after the first session. The retention test (i.e., the second session) was carried out 24 hours later.

rat brain homogenate = experiment: Antilipid Peroxidation Activity (A), rat brain homogenate, TBA reaction; format: biochemical, Male Wister rats; conditions: at 10^-4 M, 37° C., 30 minutes
Experimental: (A) Male Wister rats having a body weight of 350 to 380 g were used. A rat was decapitated and the whole brain other than the cerebellum was homogenized in 10 times volume of ice cooled 50 mM buffered saline (PBS) having a pH of 7.4. The homogenized mixture was then centrifugally separated and the resultant supernatant frozen at a temperature of -30° C. The frozen specimen was melted in flowing water and was then diluted with 3 times volume PBS to prepare the diluted homogenate.
A 10 μl of a solution of the sample compound prepared in the Synthesis Example 1 or 7 was added to 1 ml of the diluted homogenate obtained above and the mixture was incubated at a temperature of 37° C. for 30 minutes. […]
As is the case of the test compound solution, 10 μl of the standard solution of tetramethoxypropane (TMP) was prepared and was added to the reaction mixture in amounts of 0 to 10 nmole/tube. […] Thereafter, the resultant layers were stabilized for 10 minutes at 2,000 rpm and the absorbance of the organic layer at 532 nm or the fluorescence intensity of the organic layer at 553 nm (excited at 515 nm) were determined. The lipid peroxide content was determined and represented a nmole number of malon dialdehyde (MDA) per mg of protein. The protein was determined by a Lawry method (i.e., Lawry et al., J. Biol. Chem., 193, 265 (1951)).

Male ddY mice [4] = experiment: Global Ischemia Activity (gasping time after decapitation); format: in vivo; conditions: for minimal effective dose: Mus musculus, ip, 30 minutes before decapitation, vs saline control, read-out: Global Ischemia EDmin (Minimum effective dose); for extension of the gasping time: at a dose of 50 mg/kg or less, injected
Experimental: Male ddY mice having a body weight of 22 to 30 g were used (i.e., 6 mice in one group). The sample compound prepared in the Synthesis Example 1 or 7 was intraperitoneally injected into the mice and the mice were decapitated 30 minutes after the injection. After decapitation, the gasping times were determined. The results were compared with a control group to which only the saline was injected.

Male mice = experiment: Hemicholinium No. 3 (HC-3) Induced Anoxia Activity (survival time); format: in vivo; conditions: Mus musculus; ip, 15 minutes before 5 mg/kg hemicholinium No. 3 into tail vein; read-out: HC-3 Induced Anoxia EDmin (Minimum effective dose)
Experimental: Male mice having a body weight of 22 to 30 g were used (i.e., 7 to 10 mice in one group). The sample compound prepared in the Synthesis Example 1 or 7 was intraperitoneally injected into the mice and, 15 minutes later, 5 mg/kg of hemicholinium No. 3 was injected into the tail vein of the mice. The time from the injection of hemicholinium No. 3 to the termination of breathing by the mice was determined to be the survival time. The results were compared with that of a control group to which only a physiological saline was injected.

Male ddY mice [5] = experiment: Hypobaric Hypoxia Activity (survival time at 180 mmHg); format: in vivo; conditions: for minimal effective dose: Mus musculus, ip, 30 minutes before evacuation to 180 mmHg, vs physiological saline, read-out: Hypobaric Hypoxia EDmin (Minimum effective dose)
Experimental: Male ddY mice having a body weight of 22 to 30 g were used (i.e., 7 to 10 mice in one group). The mice were […] sample compound prepared in the Synthesis Example 1 or 7 was intraperitoneally injected into the mice. The desiccator was evacuated 30 minutes after the injection and the time from the start of the evacuation to the termination of breathing by the mice was determined to be the survival time. If a mouse was still alive 15 minutes after exposure to the hypoxia, the survival time was assumed to be 15 minutes.

SMILES	inhibition of the formation of the lipid peroxides ([1]; at a dose of 10 mg/kg)	inhibition of the formation of the lipid peroxides ([1]; at a dose of 50 mg/kg)	extension of the gasping time (Male ddY mice [4])	further results
COc1ccc(O)c(C(CCC(=O)OCCN(C)C)c2ccccc2)c1 (stereo not shown) [Example 36, 4-(2-hydroxy-5-methoxy)phenyl-4-phenyl-1-(2-dimethylamino)ethyloxy-1-oxybutane]	caused inhibition	–	–	–
COc1ccc(O)c(C(CCC(=O)N2CCN(c3ccccc3)CC2)c2ccccc2)c1 (stereo not shown) [Example 4]	caused inhibition	–	–	–
COc1ccc(O)c(C(CCC(=O)N2CCCCC2)c2ccccc2)c1 (stereo not shown) [Example 3]	–	significant difference in the inhibition of the formation of the lipid peroxides	–	–
COc1ccc(O)c(C(CCC(=O)N2CCN(CCO)CC2)c2ccccc2)c1 (stereo not shown) [Example 7]	–	–	–	Normobaric Hypoxia EDmin (Minimum effective dose) (Male ddY mice [2]): Inactive at 50 mg/kg, ip; minimal effective dose (Male ddY mice [3]): 25 mg/kg; Antilipid Peroxidation, % inhibition of the rat brain homogenate (rat brain homogenate): 88.0%; minimal effective dose (Male ddY mice [4]): 50 mg/kg; minimal effective dose (Male mice): 25 mg/kg; minimal effective dose (Male ddY mice [5]): 50 mg/kg
COc1ccc(O)c(C(CCC(=O)N2CCNCC2)c2ccccc2)c1 (stereo not shown) [Example 28, 4-(2-hydroxy-5-methoxy)phenyl-4-phenyl-1-piperazinyl-1-oxobutane]	–	significant difference in the inhibition of the formation of the lipid peroxides	–	–
COc1ccc(O)c(C(CCC(=O)NCc2ccccn2)c2ccccc2)c1 (stereo not shown) [Example 9]	caused inhibition	–	–	–
COc1ccc(O)c(C(CCC(=O)N2CCCNCC2)c2ccccc2)c1 (stereo not shown) [Example 30, 4-(2-hydroxy-5-methoxy)phenyl-4-phenyl-1-homopiperazinyl-1-oxobutane]	–	–	significant difference in the extension of the gasping time	–
COc1ccc(O)c(C(CCC(=O)N2CCCC2)c2ccccc2)c1 (stereo not shown) [Example 13]	–	significant difference in the inhibition of the formation of the lipid peroxides	–	–
COc1ccc(O)c(C(CCC(=O)N(C)Cc2ccccc2)c2ccccc2)c1 (stereo not shown) [Example 6]	caused inhibition	–	significant difference in the extension of the gasping time	–
COc1ccc(O)c(C(CCC(=O)N2CCSCC2)c2ccccc2)c1 (stereo not shown) [Example 8]	–	–	–	inhibition of the formation of the lipid peroxides ([1]; at a dose of 5 mg/kg): caused inhibition
COc1ccc(O)c(C(CCC(=O)NCCN2CCN(C(=O)CCC(c3ccccc3)c3cc(OC)ccc3O)CC2)c2ccccc2)c1 (stereo not shown) [Example 33, 4-(2-hydroxy-5-methoxy)phenyl-1-[4-(2-(4-(2-hydroxy-5-methoxy)phenyl-4-phenyl-1-oxo)aminoethyl)piperadinyl]-1-oxobutane]	–	significant difference in the inhibition of the formation of the lipid peroxides	significant difference in the extension of the gasping time	extension of the survival time (hypobaric hypoxia) (Male ddY mice [5]; at a dose of 50 mg/kg or less, injected): significant difference in the extension of the survival time
COc1ccc(O)c(C(CCC(=O)N2CCN(C)CC2)c2ccccc2)c1 (stereo not shown) [Example 1, 4-(2-hyddroxy-5-methoxy)phenyl-4-phenyl-1-(4-methyl)piperazinyl-1-oxobutane]	caused inhibition	–	–	minimal effective dose (Male ddY mice [2]; Mus musculus, read-out: Normobaric Hypoxia EDmin (Minimum effective dose)): 50 mg/kg; minimal effective dose (Male ddY mice [3]): 50 mg/kg; Antilipid Peroxidation, % inhibition of the rat brain homogenate (rat brain homogenate): 95.4%; minimal effective dose (Male ddY mice [4]): 25 mg/kg; minimal effective dose (Male mice): 50 mg/kg; minimal effective dose (Male ddY mice [5]): 50 mg/kg
COc1ccc(O)c(C(CCC(=O)N2CCCN(C(=O)CCC(c3ccccc3)c3cc(OC)ccc3O)CC2)c2ccccc2)c1 (stereo not shown) [Example 31, N,N'-bis-[(4-(2-hydroxy-5-methoxy)phenyl-4-phenyl)-1-oxobutyl]homopiperazine]	–	significant difference in the inhibition of the formation of the lipid peroxides	–	–
CCOC(=O)c1ccc(Oc2cccc(OC)c2)c(NC(=O)CCC(c2ccccc2)c2cc(OC)ccc2O)c1 (stereo not shown) [Example 15]	–	–	significant difference in the extension of the gasping time	–
COc1ccc(O)c(C(CCC(=O)NCCN2CCNCC2)c2ccccc2)c1 (stereo not shown) [Example 32]	–	–	significant difference in the extension of the gasping time	–
COc1ccc(O)c(C(CCC(=O)NCCN2CCCCC2)c2ccccc2)c1 (stereo not shown) [Example 19, 4-(2-hydroxy-5-methoxy)phenyl-4-phenyl-1-(2-piperidinyl)ethylamino-1-oxobutane hydrochloride]	–	–	significant difference in the extension of the gasping time	survival time (hypobaric hypoxia) compared with the control group (Male ddY mice [5]; dose not clearly stated): reduced the survival time
COc1ccc(O)c(C(CCC(=O)NN2CCOCC2)c2ccccc2)c1 (stereo not shown) [Example 12]	–	significant difference in the inhibition of the formation of the lipid peroxides	–	–
COc1ccc(O)c(C(CCC(=O)N2CCCN(C)CC2)c2ccccc2)c1 (stereo not shown) [Example 18]	–	significant difference in the inhibition of the formation of the lipid peroxides	–	–
COc1ccc(O)c(C(CCC(=O)N2CCN(C(=O)CCC(c3ccccc3)c3cc(OC)ccc3O)CC2)c2ccccc2)c1 (stereo not shown) [Example 29, N,N'-bis[(4-(2-hydroxy-5-methoxy)phenyl-4-phenyl)-1-oxobutyl]piperazine]	caused inhibition	–	–	–
